Measured values published in patent publication US20250313653A1, “GUEST/HOST INCLUSION COMPLEXES CONTAINING S-NITROSOGLUTATHIONE AND METHODS OF USE THEREOF” (VIRGINIA COMMONWEALTH UNIVERSITY, priority 2022, published 2025).

Legend:
[1] = GSNO thermal decomposition via UV-Vis absorption spectroscopy; format: physicochemical
Description: GSNO was synthesized by nitrosation of reduced L-glutathione in acidified nitrite as previously reported.^52 After collecting GSNO precipitates and washing them using cold water and acetone, GSNO powder was vacuum dried for 4 h and stored at −20° C. GSNO powders were dissolved in phosphate buffer (PB) containing the same mole of Na2HPO4 before the pH adjustment. For example, the formal concentration of Na2HPO4 is 0.1 M when the GSNO concentration is 0.1 M. One hundred μM EDTA was always added to each solution before the solution pH was finally adjusted to 7.4 via NaOH. EDTA is a chelating agent to mask Cu^2+, a S-nitrosothiol catalyst that may exist in solvents and chemicals as an impurity.^53 For solutions with reactive agents, BSA, ascorbic acid, or cysteine was added before the pH adjustment. To prepare GSNO-CD solutions, appropriate amounts of CD powders were dissolved into the GSNO solutions prior to the pH adjustment.
(§1) Aqueous GSNO solutions were contained in 1.5 mL disposable polystyrene cuvettes. The cuvette was caped and further sealed with parafilm. The concentrations of GSNO during storage at 37° C. or 25° C. in the dark were monitored by a UV-vis spectrophotometer (Go Direct® Fluorescence/UV-VIS Spectrophotometer) at a wavelength of 545 nm. A 4 W LED white light was used as the light source for the photodecomposition experiment at room temperature. The distance between the light source and the cuvettes was approximately 10 cm. All GSNO decomposition experiments were triplicated, and the GSNO concentration was expressed as mean±standard deviation.

[2] = GSNO photodecomposition under LED white light; format: physicochemical; conditions: presence of αCD, 4-h experiment under LED white light, room temperature
Description: as §1

[3] = NO release from GSNO solutions (chemiluminescence NO analyzer); format: physicochemical; conditions: 3 mL of 0.1 M GSNO solution with or without an equal mole of αCD, 37° C.
Description: The NO release was quantified by an ECO PHYSICS NO analyzer (nCLD 66). […] of castor oil was added to NO release solutions as an antifoam agent when 3 mL GSNO or GSNO-CD solutions were tested in an amber glass cell at 37° C. Humidified air was vacuumed into the solution to carry NO continuously into the chemiluminescence detection chamber at a flow rate of 100 cm^3/min. The solutions were stored in sealed amber glass vials between measurements at 37° C. To monitor the NO release from catheters, solutions were filled into 2.5 cm-long medical-grade silicone tubes (HelixMark® 60-011-07, 1.58 mm ID, 2.41 mm OD) that were scaled on both ends with plastic rods. The filled tubes were placed into the amber glass cell containing 5 mL of 0.01 M PBS with 0.1 mM EDTA (PBSE) at 37° C. N2 was used as the carrier gas at a flow rate of 100 cm^3/min to introduce NO into the analyzer. Filled tubes were stored in 10 mL PBSE at 37° C. in the dark between measurements. The soaking PBSE solution was refreshed after each measurement.

[4] = Stability of GSNO in agar hydrogel (colour fading); format: physicochemical; conditions: 1% agar hydrogel, 0.1 M GSNO, 37° C.
Description: Two grams of agar were dissolved in 100 mL of 0.1 M phosphate buffer at pH 7.4 at 80° C. for 3 h with stirring. GSNO solutions at 0.2 M with or without 0.2 M αCD in 0.1 M phosphate buffer at pH 7.4 were prepared separately. Then, 0.5 mL GSNO solution and 0.5 mL dissolved agar were mixed and put into an ice bath to facilitate gelation.

S. aureus = test: Prevention of intraluminal catheter infection (planktonic and biofilm); format: cell-based; conditions: 3-day experiments
Description: Both biofilm and planktonic bacteria were quantified to evaluate the antibacterial activities of the proposed method. LB medium (25 mg/mL) was used to culture all bacterial strains overnight before performing the antibacterial tests. Segments of medical-grade silicone tubes were all autoclaved. Lock solutions were freshly prepared using the sterilized buffer and filtered through a 0.22 m PES syringe filter. The biofilms on the silicone surface were dip-rinsed 5 times in PBS and detached by 1-min vertexing, 1-min sonication (20% power of a 150 W probe sonifier, Branson Ultrasonics), and another 1-min vertexing for plate counting. When quantifying the planktonic bacteria, the suspension was homogenized by 1-min vertexing. […] After plate incubation at 37° C. overnight, colony-forming units (CFU) of bacteria were counted and converted to CFU/cm^2 for biofilm quantification and CFU/mL for planktonic bacteria quantification. […] In our case, the limit of detection (LOD) is 400 CFU/cm^2 for biofilm quantification and 200 CFU/mL for quantification of planktonic bacteria. […] The statistical significance between groups was determined using a student's t-test.
The 0.1 M αCD, 0.1 M GSNO, and 0.1 M GSNO+0.1 M αCD solutions were prepared in LB broth buffered with 0.1 M Na2HPO4 and adjusted to pH 7.4. […] Viable biofilm and planktonic cells were evaluated by plate counting. […]

fibroblast L929 cells = test: Cytotoxicity test (MTS assay) of lock-solution-filled silicone tubes; format: cell-based, mouse; conditions: 24-h incubation of L929 cells with silicone tubes filled with the lock solution
Description: L929 murine fibroblast cells were suspended in complete media (DMEM with 1% penicillin/streptomycin and 10% FBS) before being seeded in a 24-well plate at a concentration of 5×10^5 cells per well. After 24 h of incubation, the attached cells in each well were incubated in fresh media containing a sterilized 1-cm silicone tube (HelixMark® 60-011-07) filled with a lock solution with buffer, GSNO, or GSNO-αCD and with both ends sealed. MTS assays were performed following the manufacturer's procedure after an additional 24-h incubation. Absorbance at 490 nm was measured by a Cytation 3 imaging plate reader (Biotek).

[5] = 0.1 M GSNO in 0.1 M PB, pH 7.4, 37° C., with 0.15 M αCD and 0.1 M γCD
[6] = 0.1 M GSNO in 0.1 M PB, pH 7.4, 37° C., without CD
[7] = 0.1 M GSNO with 0.15 M αCD and 0.1 M γCD versus GSNO only

N[C@@H](CCC(=O)N[C@@H](CSN=O)C(=O)NCC(=O)O)C(=O)O [GSNO, S-nitrosoglutathione]
GSNO lifetime ([1]; 0.05 M GSNO and 0.15 M αCD in 0.05 M PB, pH 7.4, 37° C.): 17 days | GSNO lifetime ([1]; 0.05 M GSNO in 0.05 M PB, pH 7.4, 37° C., without CDs): 7 days | GSNO decay in the first 24 h ([1]; 0.1 M GSNO in 0.1 M PB, pH 7.4, 37° C., with 0.1 M αCD): 39% | GSNO lifetime [1, 5]: 15 days | first-day decay of GSNO [1, 5]: 22% | GSNO lifetime ([1]; 0.1 M GSNO in 0.1 M PB, pH 7.4, 37° C., with an equal mole (0.1 M) of αCD): 11 days | GSNO degraded within the first 24 h [1, 6]: 66% | GSNO lifetime [1, 6]: 6 days | improvement of GSNO lifetime [1, 7]: 2.5 times | improvement of first-day decay [1, 7]: 3 times | lifetime of 0.1 M GSNO ([1]; in the presence of CDs at 37° C.): up to 15 days | half-life at 0.05 M ([1]; phosphate buffer, room temperature, 0.05 M GSNO in 0.05 M PB pH 7.4, with 0.15 M αCD): ~20 days | half-life of GSNO relative to only GSNO ([1]; room temperature, with 0.15 M αCD): 4 times | decrease in the decomposition rate of GSNO [2]: ~2 fold | duration of NO release [3]: 6 days | time the reddish color of GSNO lasts ([4]; with an equal mole of αCD): more than 6 days | time in which the reddish color of GSNO fades ([4]; without αCD): less than 2 days | reduction of bacterial biofilm on silicone rubber (S. aureus): 99.2% | reduction of growth of planktonic S. aureus compared to the phosphate buffer (S. aureus; 0.1 M GSNO without or with 0.1 M αCD, 37° C.): 5 orders of magnitude | cytotoxicity / cell viability (MTS) (fibroblast L929 cells): no cytotoxicity
